Experimental data reported in PubChem BioAssay (NCI).
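Grown in 96-well plates, cells were treated for 48 hours with each compound at five concentrations. Insufficient inhibition: endpoint recorded as highest concentration tested. TGI is the concentration that stops growth completely.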

Tests used:
Assay in all cases: DTP human tumour cell line panel, 48 h
DU-145 prostate = system: DU-145 prostate
NCI/ADR-RES ovarian = system: NCI/ADR-RES ovarian
K-562 leukemia = system: K-562 leukemia
CCRF-CEM leukemia = system: CCRF-CEM leukemia
IGROV1 ovarian = system: IGROV1 ovarian
UO-31 renal = system: UO-31 renal
SR leukemia = system: SR leukemia
TK-10 renal = system: TK-10 renal
HOP-92 NSCLC = system: HOP-92 NSCLC
SNB-19 CNS = system: SNB-19 CNS
SF-539 CNS = system: SF-539 CNS
T-47D breast = system: T-47D breast
MOLT-4 leukemia = system: MOLT-4 leukemia
MDA-MB-231 breast = system: MDA-MB-231 breast
SK-MEL-2 melanoma = system: SK-MEL-2 melanoma
HS 578T breast = system: HS 578T breast
HT29 colon = system: HT29 colon
SK-MEL-5 melanoma = system: SK-MEL-5 melanoma
SW-620 colon = system: SW-620 colon
SN12C renal = system: SN12C renal
MDA-N = system: MDA-N
HCT-116 colon = system: HCT-116 colon
LOX IMVI melanoma = system: LOX IMVI melanoma
HL-60(TB) leukemia = system: HL-60(TB) leukemia
MCF7 breast = system: MCF7 breast
KM12 colon = system: KM12 colon
CAKI-1 renal = system: CAKI-1 renal
SF-295 CNS = system: SF-295 CNS
SF-268 CNS = system: SF-268 CNS
OVCAR-5 ovarian = system: OVCAR-5 ovarian
HOP-62 NSCLC = system: HOP-62 NSCLC
SK-MEL-28 melanoma = system: SK-MEL-28 melanoma
M14 melanoma = system: M14 melanoma
BT-549 breast = system: BT-549 breast
OVCAR-8 ovarian = system: OVCAR-8 ovarian
MDA-MB-435 = system: MDA-MB-435
RXF 393 renal = system: RXF 393 renal
UACC-257 melanoma = system: UACC-257 melanoma
HCT-15 colon = system: HCT-15 colon
COLO 205 colon = system: COLO 205 colon
RPMI-8226 leukemia = system: RPMI-8226 leukemia
SK-OV-3 ovarian = system: SK-OV-3 ovarian
UACC-62 melanoma = system: UACC-62 melanoma
U251 CNS = system: U251 CNS
MALME-3M melanoma = system: MALME-3M melanoma
A498 renal = system: A498 renal
OVCAR-3 ovarian = system: OVCAR-3 ovarian
ACHN renal = system: ACHN renal
OVCAR-4 ovarian = system: OVCAR-4 ovarian
NCI-H23 lung = system: NCI-H23 lung
NCI-H226 lung = system: NCI-H226 lung
A549 NSCLC = system: A549 NSCLC
PC-3 prostate = system: PC-3 prostate
EKVX NSCLC = system: EKVX NSCLC
786-0 renal = system: 786-0 renal
NCI-H460 lung = system: NCI-H460 lung
HCC-2998 colon = system: HCC-2998 colon

Work on COC(=O)C12OC3CO[Si](C(C)C)(C(C)C)O[Si](C(C)C)(C(C)C)OC3C1Oc1nc(=O)ccn12 (stereo not drawn) yielded a TGI (DU-145 prostate) of 32.5 µM, a TGI (NCI/ADR-RES ovarian) of 29.2 µM and a TGI (K-562 leukemia) of 30.6 µM. The TGI (CCRF-CEM leukemia) was 41 µM, the TGI (IGROV1 ovarian) was 24 µM and the TGI (UO-31 renal) was 29.9 µM. It also gave a TGI (SR leukemia) of 32 µM, a TGI (TK-10 renal) of 30.9 µM and a TGI (HOP-92 NSCLC) of 27.7 µM. It also gave a TGI (SNB-19 CNS) of 31.2 µM, a TGI (SF-539 CNS) of 30.2 µM and a TGI (T-47D breast) of 33 µM. The TGI (MOLT-4 leukemia) was 30.8 µM, the TGI (MDA-MB-231 breast) was 29.5 µM and the TGI (SK-MEL-2 melanoma) was 31.6 µM. It also gave a TGI (HS 578T breast) of 7.3 µM, a TGI (HT29 colon) of 29.3 µM and a TGI (SK-MEL-5 melanoma) of 29.7 µM. For the same compound, the TGI (SW-620 colon) was 30 µM, the TGI (SN12C renal) was 32 µM and the TGI (MDA-N) was 32.7 µM. The TGI (HCT-116 colon) was 29.6 µM, the TGI (LOX IMVI melanoma) was 31.6 µM and the TGI (HL-60(TB) leukemia) was 72.9 µM. It also gave a TGI (MCF7 breast) of 29.4 µM, a TGI (KM12 colon) of 29.2 µM and a TGI (CAKI-1 renal) of 31.7 µM. It also gave a TGI (SF-295 CNS) of 29.6 µM, a TGI (SF-268 CNS) of 24.6 µM and a TGI (OVCAR-5 ovarian) of 28.6 µM. The TGI (HOP-62 NSCLC) was 32.2 µM, the TGI (SK-MEL-28 melanoma) was 30.4 µM and the TGI (M14 melanoma) was 32.3 µM. It also gave a TGI (BT-549 breast) of 32.1 µM, a TGI (OVCAR-8 ovarian) of 29 µM and a TGI (MDA-MB-435) of 31.3 µM. It also gave a TGI (RXF 393 renal) of 30.6 µM, a TGI (UACC-257 melanoma) of 29.1 µM and a TGI (HCT-15 colon) of 30.1 µM. It also gave a TGI (COLO 205 colon) of 32.9 µM, a TGI (RPMI-8226 leukemia) of 30.8 µM and a TGI (SK-OV-3 ovarian) of 31.1 µM. It also gave a TGI (UACC-62 melanoma) of 27.4 µM, a TGI (U251 CNS) of 29.6 µM and a TGI (MALME-3M melanoma) of 28.1 µM. It also gave a TGI (A498 renal) of 38.8 µM, a TGI (OVCAR-3 ovarian) of 29.3 µM and a TGI (ACHN renal) of 32.2 µM. For the same compound, the TGI (OVCAR-4 ovarian) was 30.8 µM, the TGI (NCI-H23 lung) was 29 µM and the TGI (NCI-H226 lung) was 30.4 µM. It also gave a TGI (A549 NSCLC) of 28.6 µM, a TGI (PC-3 prostate) of 29.2 µM and a TGI (EKVX NSCLC) of 30.7 µM. It also gave a TGI (786-0 renal) of 31.6 µM.
Compound CCOC1CC(C)N(C(=O)c2ccccc2)O1 (stereo not drawn) has a TGI (DU-145 prostate) of over 100 µM, a TGI (NCI/ADR-RES ovarian) of over 100 µM and a TGI (K-562 leukemia) of over 100 µM. The TGI (CCRF-CEM leukemia) was over 100 µM, the TGI (IGROV1 ovarian) was over 100 µM and the TGI (UO-31 renal) was over 100 µM. For the same compound, the TGI (SR leukemia) was over 100 µM, the TGI (TK-10 renal) was over 100 µM and the TGI (HOP-92 NSCLC) was over 100 µM. The TGI (SNB-19 CNS) was over 100 µM, the TGI (SF-539 CNS) was over 100 µM and the TGI (NCI-H460 lung) was over 100 µM. It also gave a TGI (T-47D breast) of over 100 µM, a TGI (MOLT-4 leukemia) of over 100 µM and a TGI (MDA-MB-231 breast) of over 100 µM. For the same compound, the TGI (HCC-2998 colon) was over 100 µM, the TGI (HS 578T breast) was over 100 µM and the TGI (HT29 colon) was over 100 µM. For the same compound, the TGI (SK-MEL-5 melanoma) was over 100 µM, the TGI (SW-620 colon) was over 100 µM and the TGI (SN12C renal) was over 100 µM. The TGI (MDA-N) was over 100 µM, the TGI (HCT-116 colon) was over 100 µM and the TGI (HL-60(TB) leukemia) was over 100 µM. It also gave a TGI (MCF7 breast) of over 100 µM, a TGI (KM12 colon) of over 100 µM and a TGI (SF-295 CNS) of over 100 µM. The TGI (SF-268 CNS) was over 100 µM, the TGI (OVCAR-5 ovarian) was over 100 µM and the TGI (HOP-62 NSCLC) was over 100 µM. The TGI (SK-MEL-28 melanoma) was over 100 µM, the TGI (M14 melanoma) was over 100 µM and the TGI (BT-549 breast) was over 100 µM. It also gave a TGI (OVCAR-8 ovarian) of over 100 µM, a TGI (MDA-MB-435) of over 100 µM and a TGI (RXF 393 renal) of over 100 µM. For the same compound, the TGI (SK-OV-3 ovarian) was over 100 µM, the TGI (UACC-62 melanoma) was over 100 µM and the TGI (U251 CNS) was over 100 µM. It also gave a TGI (A498 renal) of over 100 µM, a TGI (OVCAR-3 ovarian) of over 100 µM and a TGI (ACHN renal) of over 100 µM. For the same compound, the TGI (NCI-H23 lung) was over 100 µM, the TGI (NCI-H226 lung) was over 100 µM and the TGI (A549 NSCLC) was over 100 µM. The TGI (PC-3 prostate) was over 100 µM, the TGI (EKVX NSCLC) was over 100 µM and the TGI (786-0 renal) was over 100 µM.
